Reference: the supplement of paper PMC10307832

Tests used:
Test in all cases: relative viability (nuclei count vs DMSO), 5 days (fraction); higher = more cells survive
H3255 = system: H3255
Method in brief: (§1)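 Relative viability is defined as nuclei in treated wells over nuclei in vehicle wells. Duplicate plates were run and medians reported. Lung cancer cell lines in 1536-well plates were dosed by pin tool one day after seeding, with one drug or with a fixed anchor-drug dose plus five library-drug doses (not always all listed) in √10 steps, and nuclei were counted after 5 days.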

COR-L23 = system: COR-L23
Method in brief: as §1

SW 1573 = system: SW 1573
Method in brief: as §1

NCI-H23 = system: NCI-H23
Method in brief: as §1

PC-3 [JPC-3] = system: PC-3 [JPC-3]
Method in brief: as §1

NCI-H650 = system: NCI-H650
Method in brief: as §1

NCI-H1651 = system: NCI-H1651
Method in brief: as §1

NCI-H1563 = system: NCI-H1563
Method in brief: as §1

LU99A = system: LU99A
Method in brief: as §1

NCI-H2347 = system: NCI-H2347
Method in brief: as §1

NCI-H1793 = system: NCI-H1793
Method in brief: as §1

NCI-H1650 = system: NCI-H1650
Method in brief: as §1

LCLC-97TM1 = system: LCLC-97TM1
Method in brief: as §1

201T = system: 201T
Method in brief: as §1

LK-2 = system: LK-2
Method in brief: as §1

NCI-H838 = system: NCI-H838
Method in brief: as §1

RERF-LC-KJ = system: RERF-LC-KJ
Method in brief: as §1

PC-14 = system: PC-14
Method in brief: as §1

NCI-H727 = system: NCI-H727
Method in brief: as §1

A-427 = system: A-427
Method in brief: as §1

NCI-H1944 = system: NCI-H1944
Method in brief: as §1

NCI-H460 = system: NCI-H460
Method in brief: as §1

In the case of `Clc1ccc(Nc2nnc(Cc3ccncc3)c3ccccc23)cc1` [Vatalanib] + CS(=O)(=O)CCNCc1ccc(-c2ccc3ncnc(Nc4ccc(OCc5cccc(F)c5)c(Cl)c4)c3c2)o1 [Lapatinib] (partner 2 µM), the relative viability (H3255; first compound 0.04 µM) is reported as 0.261, the relative viability (H3255; first compound 0.1265 µM) is reported as 0.226 and the relative viability (H3255; first compound 0.4 µM) is reported as 0.287. It also gave a relative viability (H3255; first compound 1.265 µM) of 0.247, a relative viability (H3255; first compound 4 µM) of 0.263 and a relative viability (COR-L23; first compound 0.04 µM) of 0.848. For the same compound, the relative viability (COR-L23; first compound 0.1265 µM) was 0.753, the relative viability (COR-L23; first compound 0.4 µM) was 1.01 and the relative viability (COR-L23; first compound 1.265 µM) was 1.07. The relative viability (COR-L23; first compound 4 µM) was 0.868, the relative viability (SW 1573; first compound 0.04 µM) was 1.29 and the relative viability (SW 1573; first compound 0.1265 µM) was 0.942. For the same compound, the relative viability (SW 1573; first compound 0.4 µM) was 1.23, the relative viability (SW 1573; first compound 1.265 µM) was 1.04 and the relative viability (SW 1573; first compound 4 µM) was 1.05. For the same compound, the relative viability (NCI-H23; first compound 0.04 µM) was 0.963, the relative viability (NCI-H23; first compound 0.1265 µM) was 1.15 and the relative viability (NCI-H23; first compound 0.4 µM) was 1.3. The relative viability (NCI-H23; first compound 1.265 µM) was 0.993, the relative viability (NCI-H23; first compound 4 µM) was 1.08 and the relative viability (PC-3 [JPC-3]; first compound 0.04 µM) was 0.49. It also gave a relative viability (PC-3 [JPC-3]; first compound 0.1265 µM) of 0.461, a relative viability (PC-3 [JPC-3]; first compound 0.4 µM) of 0.448 and a relative viability (PC-3 [JPC-3]; first compound 1.265 µM) of 0.43. The relative viability (PC-3 [JPC-3]; first compound 4 µM) was 0.442, the relative viability (NCI-H650; first compound 0.04 µM) was 0.694 and the relative viability (NCI-H650; first compound 0.1265 µM) was 0.784. It also gave a relative viability (NCI-H650; first compound 1.265 µM) of 0.784, a relative viability (NCI-H650; first compound 4 µM) of 0.911 and a relative viability (NCI-H1651; first compound 0.04 µM) of 0.921. It also gave a relative viability (NCI-H1651; first compound 0.1265 µM) of 0.868, a relative viability (NCI-H1651; first compound 0.4 µM) of 0.947 and a relative viability (NCI-H1651; first compound 1.265 µM) of 0.899. It also gave a relative viability (NCI-H1651; first compound 4 µM) of 0.835, a relative viability (NCI-H1563; first compound 0.04 µM) of 0.994 and a relative viability (NCI-H1563; first compound 0.1265 µM) of 0.91. For the same compound, the relative viability (NCI-H1563; first compound 0.4 µM) was 1.12, the relative viability (NCI-H1563; first compound 1.265 µM) was 0.945 and the relative viability (NCI-H1563; first compound 4 µM) was 0.777. For the same compound, the relative viability (LU99A; first compound 0.04 µM) was 0.893, the relative viability (LU99A; first compound 0.1265 µM) was 0.986 and the relative viability (LU99A; first compound 0.4 µM) was 1.16. It also gave a relative viability (LU99A; first compound 1.265 µM) of 0.831, a relative viability (LU99A; first compound 4 µM) of 0.92 and a relative viability (NCI-H2347; first compound 0.04 µM) of 1.01. For the same compound, the relative viability (NCI-H2347; first compound 0.1265 µM) was 0.858, the relative viability (NCI-H2347; first compound 0.4 µM) was 0.931 and the relative viability (NCI-H2347; first compound 1.265 µM) was 0.907. For the same compound, the relative viability (NCI-H2347; first compound 4 µM) was 0.833, the relative viability (NCI-H1793; first compound 0.04 µM) was 0.743 and the relative viability (NCI-H1793; first compound 0.1265 µM) was 0.704. For the same compound, the relative viability (NCI-H1793; first compound 0.4 µM) was 1.05, the relative viability (NCI-H1793; first compound 1.265 µM) was 0.64 and the relative viability (NCI-H1793; first compound 4 µM) was 0.81. For the same compound, the relative viability (NCI-H1650; first compound 0.04 µM) was 0.799, the relative viability (NCI-H1650; first compound 0.1265 µM) was 0.644 and the relative viability (NCI-H1650; first compound 0.4 µM) was 0.959. It also gave a relative viability (NCI-H1650; first compound 1.265 µM) of 0.752, a relative viability (NCI-H1650; first compound 4 µM) of 0.63 and a relative viability (LCLC-97TM1; first compound 0.04 µM) of 0.818. The relative viability (LCLC-97TM1; first compound 0.1265 µM) was 0.847, the relative viability (LCLC-97TM1; first compound 0.4 µM) was 0.841 and the relative viability (LCLC-97TM1; first compound 1.265 µM) was 0.897. The relative viability (LCLC-97TM1; first compound 4 µM) was 0.971, the relative viability (201T; first compound 0.04 µM) was 1.02 and the relative viability (201T; first compound 0.1265 µM) was 0.989. It also gave a relative viability (201T; first compound 0.4 µM) of 1.04, a relative viability (201T; first compound 1.265 µM) of 1.05 and a relative viability (201T; first compound 4 µM) of 1.07. For the same compound, the relative viability (LK-2; first compound 0.04 µM) was 0.88, the relative viability (LK-2; first compound 0.1265 µM) was 0.831 and the relative viability (LK-2; first compound 0.4 µM) was 0.698. For the same compound, the relative viability (LK-2; first compound 1.265 µM) was 1.03, the relative viability (LK-2; first compound 4 µM) was 0.93 and the relative viability (NCI-H838; first compound 0.04 µM) was 1.06. It also gave a relative viability (NCI-H838; first compound 0.1265 µM) of 0.944, a relative viability (NCI-H838; first compound 0.4 µM) of 1.09 and a relative viability (NCI-H838; first compound 1.265 µM) of 0.841. It also gave a relative viability (NCI-H838; first compound 4 µM) of 0.961, a relative viability (RERF-LC-KJ; first compound 0.04 µM) of 0.812 and a relative viability (RERF-LC-KJ; first compound 0.1265 µM) of 0.842. The relative viability (RERF-LC-KJ; first compound 0.4 µM) was 0.854, the relative viability (RERF-LC-KJ; first compound 1.265 µM) was 0.775 and the relative viability (RERF-LC-KJ; first compound 4 µM) was 0.698. For the same compound, the relative viability (PC-14; first compound 0.04 µM) was 0.377, the relative viability (PC-14; first compound 0.1265 µM) was 0.306 and the relative viability (PC-14; first compound 0.4 µM) was 0.334. It also gave a relative viability (PC-14; first compound 1.265 µM) of 0.315, a relative viability (PC-14; first compound 4 µM) of 0.288 and a relative viability (NCI-H727; first compound 0.04 µM) of 0.806. For the same compound, the relative viability (NCI-H727; first compound 0.1265 µM) was 0.717, the relative viability (NCI-H727; first compound 0.4 µM) was 0.9 and the relative viability (NCI-H727; first compound 1.265 µM) was 0.709. For the same compound, the relative viability (NCI-H727; first compound 4 µM) was 1.02, the relative viability (A-427; first compound 0.04 µM) was 1.01 and the relative viability (A-427; first compound 0.1265 µM) was 0.938. The relative viability (A-427; first compound 0.4 µM) was 0.769, the relative viability (A-427; first compound 1.265 µM) was 0.972 and the relative viability (A-427; first compound 4 µM) was 1.11. It also gave a relative viability (NCI-H1944; first compound 0.04 µM) of 0.904, a relative viability (NCI-H1944; first compound 0.1265 µM) of 0.635 and a relative viability (NCI-H1944; first compound 0.4 µM) of 0.909. The relative viability (NCI-H1944; first compound 1.265 µM) was 0.804, the relative viability (NCI-H1944; first compound 4 µM) was 0.784 and the relative viability (NCI-H460; first compound 0.04 µM) was 1.04. For the same compound, the relative viability (NCI-H460; first compound 0.1265 µM) was 0.848, the relative viability (NCI-H460; first compound 0.4 µM) was 0.931 and the relative viability (NCI-H460; first compound 1.265 µM) was 0.845. The relative viability (NCI-H460; first compound 4 µM) was 0.898.
